Assay results reported in US20030215788A1, “Cysteine thiol-protected peptides for use in immunoassays” (priority 1989, published 2003).
Entries after “also recorded” stand apart in the source; their conditions may differ. Read-outs that look alike come from different tables or passages of the source.

Key:
Type in all cases: binding, human
Antibodies to HIV-1 [1] = details: adsorbed on latex beads, absorbance at 405 nm
Antibodies to HIV-1 [2] = tested on: Antibodies to HIV-1
Procedure: (§1) Alternative methods of testing immunologic cross-reactivity were also used. In one such method L5 Peptides 39 and 39GC were tested by ELISA as previously described in U.S. Pat. No. 4,629,783. Briefly, stock solutions of peptides 39 and 39-GC were prepared in 6M Gu-HCl. Working dilutions of 20 µg/ml and 6 μg/ml respectively were prepared by dilution of stock solution 0 with 0.05M carbonate/bicarbonate buffer, pH 9.5. Wells of microtiter plates were filled with 100 μl of the working dilution of the peptides and allowed to stand overnight at room temperature. Coating solution was removed and 300 μl of blocking solution supra containing 0.5M ethanolamine was added for 1 hr. at room temperature. Blocking solution was removed and the plates were used immediately or allowed to dry and stored for later use.
(§2) Plasma samples were diluted (See Table 1) in sample dilution buffer (above) and 100 μl was added to individual wells. Samples were incubated for 30 min. at 37° C., then removed and the wells were washed six times with 0.15M NaCl, 0.05% Tween 20. One hundred microliters of goat antihuman Ig-horseradish peroxidase conjugate diluted in citrate buffer, pH 7.0, 1% normal goat serum was added to each well for 30 min at 37° C. prior to washing six times as above. The ELISA assay was developed by adding 100 μl/well of substrate solution (80 μg/ml tetramethyl benzidine, 0.0015% hydrogen peroxide in citrate/phosphate buffer, pH 6.0) for 30 min. at room temperature. Reactions were stopped with the addition of 100 μl of H2SO4 per well, and the ratio of the optical density at 450 nm to 630 nm was determined by an automated ELISA reader. The cutoff value for a positive result was set at 0.225 Absorbance Units above the average absorbance obtained for three known negative samples.

Antibodies to HIV-2 = test: EIA of dilutional series of HIV-2 positive sera
Procedure: as §1, §2
The immunoreactivity of HIV-2 peptides synthesized with protected cysteine thiol groups was determined. […] EIAs were performed as described above using viral lysates of HIV-1 and HIV-2 and peptides 39GC (HIV-1) and 41-2-3GC. Reactivity was determined for dilutions of two HIV-2 positive sera, F504282, obtained from a patient in New York, and “GOM,” provided by the Institut Pasteur.
The assays were EIAs performed generally as described above with varying dilutions of HIV-2 positive serum specimens.

Cys-Gly-Gly-Arg-Ile-Leu-Ala-Val-Glu-Arg-Tyr-Leu-Lys-Asp-Gln-Gln-Leu-Leu-Gly-Ile-Trp-Gly-Cys*-Ser-Gly-Lys-Leu-Ile-Cys*-NH2 [Peptide 39GC]
immunological reactivity compared with Peptide 39 (Antibodies to HIV-1 [1]): substantial improvement over Peptide 39
Diagnosis by ELISA (Antibodies to HIV-1 [2]; PlasmaG (1:40)): Pos/Pos
ELISA optical density (450 nm/630 nm) (Antibodies to HIV-1 [2]; PlasmaG (1:40)): 0.895
Diagnosis by ELISA (Antibodies to HIV-1 [2]; PlasmaG (1:80)): Pos
ELISA optical density (450 nm/630 nm) (Antibodies to HIV-1 [2]; PlasmaG (1:80)): 0.820
Diagnosis by ELISA (Antibodies to HIV-1 [2]; PlasmaG (1:160)): Pos
ELISA optical density (450 nm/630 nm) (Antibodies to HIV-1 [2]; PlasmaG (1:160)): 0.575
Diagnosis by ELISA (Antibodies to HIV-1 [2]; PlasmaG (1:320)): Neg/Neg
ELISA optical density (450 nm/630 nm) (Antibodies to HIV-1 [2]; PlasmaG (1:320)): 0.349
Diagnosis by ELISA (Antibodies to HIV-1 [2]; PlasmaG (1:640)): Neg/Neg
ELISA optical density (450 nm/630 nm) (Antibodies to HIV-1 [2]; PlasmaG (1:640)): 0.179
Diagnosis by ELISA (Antibodies to HIV-1 [2]; PlasmaG (1:1280)): Neg/Neg
ELISA optical density (450 nm/630 nm) (Antibodies to HIV-1 [2]; PlasmaG (1:1280)): 0.107
Diagnosis by ELISA (Antibodies to HIV-1 [2]; PlasmaO (1:40)): Pos/Pos
ELISA optical density (450 nm/630 nm) (Antibodies to HIV-1 [2]; PlasmaO (1:40)): 1.439
Diagnosis by ELISA (Antibodies to HIV-1 [2]; PlasmaO (1:80)): Pos/Pos
ELISA optical density (450 nm/630 nm) (Antibodies to HIV-1 [2]; PlasmaO (1:80)): 1.010
Diagnosis by ELISA (Antibodies to HIV-1 [2]; PlasmaO (1:160)): Pos/Pos
ELISA optical density (450 nm/630 nm) (Antibodies to HIV-1 [2]; PlasmaO (1:160)): 0.742
Diagnosis by ELISA (Antibodies to HIV-1 [2]; PlasmaO (1:320)): Pos
ELISA optical density (450 nm/630 nm) (Antibodies to HIV-1 [2]; PlasmaO (1:320)): 0.397
Diagnosis by ELISA (Antibodies to HIV-1 [2]; PlasmaO (1:640)): Neg/Neg
ELISA optical density (450 nm/630 nm) (Antibodies to HIV-1 [2]; PlasmaO (1:640)): 0.279
Diagnosis by ELISA (Antibodies to HIV-1 [2]; PlasmaO (1:1280)): Neg/Neg
ELISA optical density (450 nm/630 nm) (Antibodies to HIV-1 [2]; PlasmaO (1:1280)): 0.165
dilution giving a positive result, compared with Peptide 39 (Antibodies to HIV-1 [2]; plasma dilution panel, Table 1): positive result at a higher dilution than Peptide 39
ELISA optical density (Antibodies to HIV-1 [2]; seroconversion panel sample BBI-1): 0.347
ELISA optical density (Antibodies to HIV-1 [2]; seroconversion panel sample BBI-2): 0.317
ELISA optical density (Antibodies to HIV-1 [2]; seroconversion panel sample BBI-3): 0.842
ELISA optical density (Antibodies to HIV-1 [2]; seroconversion panel sample BBI-4): 1.105
ELISA optical density (Antibodies to HIV-1 [2]; seroconversion panel sample BBI-5): 1.757
ELISA optical density (Antibodies to HIV-1 [2]; seroconversion panel sample BBI-6): 2.160
ELISA optical density (Antibodies to HIV-1 [2]; seroconversion panel sample BBI-7): 1.986
ELISA optical density (Antibodies to HIV-1 [2]; seroconversion panel sample BBI-8): 2.317
ELISA optical density (Antibodies to HIV-1 [2]; seroconversion panel sample BBI-9): 2.328
ELISA optical density (Antibodies to HIV-1 [2]; seroconversion panel sample BBI-20): 0.136
ELISA optical density (Antibodies to HIV-1 [2]; seroconversion panel sample BBI-21): 0.158
ELISA optical density (Antibodies to HIV-1 [2]; seroconversion panel sample BBI-22): 0.450
ELISA optical density (Antibodies to HIV-1 [2]; seroconversion panel sample BBI-23): 0.890
ELISA optical density (Antibodies to HIV-1 [2]; seroconversion panel sample BBI-24): 1.064
ELISA optical density (Antibodies to HIV-1 [2]; seroconversion panel sample BBI-25): 0.845
ELISA optical density (Antibodies to HIV-1 [2]; seroconversion panel sample BBI-26): 0.852
ELISA optical density (Antibodies to HIV-1 [2]; seroconversion panel sample BBI-27): 1.104
ELISA optical density (Antibodies to HIV-1 [2]; seroconversion panel sample BBI-28): 1.177
ELISA optical density (Antibodies to HIV-1 [2]; seroconversion panel sample BBI-29): 2.085
ELISA optical density (Antibodies to HIV-1 [2]; seroconversion panel sample BBI-30): 2.214
ELISA optical density (Antibodies to HIV-1 [2]; seroconversion panel sample BBI-31): 2.207
ELISA optical density (Antibodies to HIV-1 [2]; seroconversion panel sample BBI-32): 2.263
ELISA optical density (Antibodies to HIV-1 [2]; seroconversion panel sample BBI-33): 2.277
ELISA optical density (Antibodies to HIV-1 [2]; seroconversion panel sample BBI-34): 1.622
ELISA optical density (Antibodies to HIV-1 [2]; seroconversion panel sample BBI-35): 2.198
ELISA optical density (Antibodies to HIV-1 [2]; seroconversion panel sample BBI-36): 2.265
ELISA optical density (Antibodies to HIV-1 [2]; seroconversion panel sample BBI-37): 2.105
time of first positive result on seroconversion panels (Antibodies to HIV-1 [2]; two seroconversion panels, Table 4): positive result earlier than whole virus ELISA; also recorded: positive result earlier than peptide 39 on one of the seroconversion panels
Reactivity in EIA (Antibodies to HIV-2; HIV-2 positive serum F504282 (A), 1:5): 0.049
Reactivity in EIA (Antibodies to HIV-2; HIV-2 positive serum F504282 (A), 1:10): 0.042
Reactivity in EIA (Antibodies to HIV-2; HIV-2 positive serum F504282 (A), 1:20): 0.037
Reactivity in EIA (Antibodies to HIV-2; HIV-2 positive serum F504282 (A), 1:40): 0.035
Reactivity in EIA (Antibodies to HIV-2; HIV-2 positive serum F504282 (A), 1:80): 0.033
Reactivity in EIA (Antibodies to HIV-2; HIV-2 positive serum F504282 (A), 1:160): 0.040
Reactivity in EIA (Antibodies to HIV-2; HIV-2 positive serum F504282 (A), 1:320): 0.031
Reactivity in EIA (Antibodies to HIV-2; HIV-2 positive serum F504282 (A), 1:640): 0.031
Reactivity in EIA (Antibodies to HIV-2; HIV-2 positive serum F504282 (A), 1:1280): 0.039
Reactivity in EIA (Antibodies to HIV-2; HIV-2 positive serum F504282 (A), 1:2560): 0.030
Reactivity in EIA (Antibodies to HIV-2; HIV-2 positive serum F504282 (A), Neat): 0.075
Reactivity in EIA (Antibodies to HIV-2; HIV-2 positive serum GOM (B), 1:2): 0.052
Reactivity in EIA (Antibodies to HIV-2; HIV-2 positive serum GOM (B), 1:4): 0.037
Reactivity in EIA (Antibodies to HIV-2; HIV-2 positive serum GOM (B), 1:8): 0.040
Reactivity in EIA (Antibodies to HIV-2; HIV-2 positive serum GOM (B), 1:16): 0.031
Reactivity in EIA (Antibodies to HIV-2; HIV-2 positive serum GOM (B), 1:32): 0.035
Reactivity in EIA (Antibodies to HIV-2; HIV-2 positive serum GOM (B), 1:64): 0.074
Reactivity in EIA (Antibodies to HIV-2; HIV-2 positive serum GOM (B), 1:128): 0.031
Reactivity in EIA (Antibodies to HIV-2; HIV-2 positive serum GOM (B), 1:256): 0.035
Reactivity in EIA (Antibodies to HIV-2; HIV-2 positive serum GOM (B), 1:512): 0.040
Reactivity in EIA (Antibodies to HIV-2; HIV-2 positive serum GOM (B), 1:1024): 0.037
